Test results published in patent US20250215029A1 (Recludix Pharma, Inc., priority 2022, published 2025).

Assays:
[1] = target: T1, Recombinant STAT3 protein (STAT3 (G127-I722)) (Homo sapiens, UniProt P40763); assay: STAT3 Fluorescence Polarization (FP) Assay; assay type: binding; conditions: STAT3 (G127-I722) 25 nM, probe 5-FAM-GpYLPQTV-NH2 2 nM, 45-minute incubation; read-out: STAT3 (FP assay IC50 class)
T1 construct: Recombinant STAT3 protein (STAT3 (G127-I722))
Procedure, shortened: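 Displacement of a fluorescent phosphotyrosine peptide (5-FAM-GpYLPQTV-NH2, 2 nM) from 25 nM recombinant STAT3 G127-I722 was monitored by FP after 45 min at room temperature.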

[2] = target: T2, Recombinant STAT6 protein (STAT6 (W123-T658)) (Homo sapiens, UniProt P42226); assay: STAT6 Fluorescence Polarization (FP) Assay; assay type: binding; conditions: STAT6 (W123-T658) 250 nM, probe 5-FAM-Ap[…]-NH2 2 nM, 45-minute incubation; read-out: STAT6 (FP assay IC50 class)
T2 construct: Recombinant STAT6 protein (STAT6 (W123-T658))
T2 sequence (P42226 123-658): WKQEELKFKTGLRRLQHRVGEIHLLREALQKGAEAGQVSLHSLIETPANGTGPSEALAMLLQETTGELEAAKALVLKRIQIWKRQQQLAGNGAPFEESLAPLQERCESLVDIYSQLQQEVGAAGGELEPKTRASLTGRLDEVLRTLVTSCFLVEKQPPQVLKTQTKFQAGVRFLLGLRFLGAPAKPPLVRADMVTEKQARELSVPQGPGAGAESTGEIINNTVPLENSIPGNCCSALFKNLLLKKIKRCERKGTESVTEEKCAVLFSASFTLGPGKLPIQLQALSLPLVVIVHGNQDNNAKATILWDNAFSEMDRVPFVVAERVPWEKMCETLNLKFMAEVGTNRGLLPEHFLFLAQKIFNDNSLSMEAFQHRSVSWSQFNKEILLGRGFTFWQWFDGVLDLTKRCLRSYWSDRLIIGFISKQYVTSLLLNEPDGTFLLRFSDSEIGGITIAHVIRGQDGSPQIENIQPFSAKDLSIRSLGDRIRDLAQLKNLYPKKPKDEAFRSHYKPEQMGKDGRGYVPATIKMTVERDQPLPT
Procedure, shortened: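 Serially diluted compounds received a premix of STAT6 (W123-T658, 250 nM) and 5-FAM peptide probe (2 nM) in pH 7.4 HEPES buffer containing DTT and Tween 20. Following 45 min at room temperature, FP was recorded. IC50s were fitted by nonlinear regression; values are binned A (≤300 nM), B (>300-3000 nM), C (>3-30 μM), D (>30 μM).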

T1 sequence (P40763 127-722): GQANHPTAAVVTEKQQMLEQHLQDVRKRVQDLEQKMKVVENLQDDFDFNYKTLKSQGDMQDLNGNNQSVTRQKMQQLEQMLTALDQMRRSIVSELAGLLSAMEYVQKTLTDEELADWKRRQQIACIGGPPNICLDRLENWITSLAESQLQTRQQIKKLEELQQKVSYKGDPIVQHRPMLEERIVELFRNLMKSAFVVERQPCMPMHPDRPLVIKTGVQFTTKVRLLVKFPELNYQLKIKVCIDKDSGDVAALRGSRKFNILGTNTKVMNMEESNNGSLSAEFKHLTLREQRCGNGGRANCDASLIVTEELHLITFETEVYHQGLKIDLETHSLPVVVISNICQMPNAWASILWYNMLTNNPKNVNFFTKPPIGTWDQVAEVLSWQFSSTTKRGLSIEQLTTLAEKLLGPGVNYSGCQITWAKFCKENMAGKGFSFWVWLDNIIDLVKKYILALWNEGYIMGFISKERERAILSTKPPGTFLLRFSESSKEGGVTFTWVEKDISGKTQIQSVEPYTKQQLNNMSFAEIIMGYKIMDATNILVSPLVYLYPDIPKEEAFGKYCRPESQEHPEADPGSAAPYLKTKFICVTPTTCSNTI

| SMILES | IC50 [1] [nM] | IC50 [2] [µM] |
| --- | --- | --- |
| C/C1=C/[C@H]2CC[C@@H](C(=O)N3CC(c4cnccc4C)C3)N2C(=O)[C@@H](NC(=O)c2cc3cc(CP(=O)(O)O)ccc3s2)CC1 [Compound 644, ((2-(((3S,6S,10aR,Z)-9-methyl-3-(3-(4-methylpyridin-3-yl)azetidine-1-carbonyl)-5-oxo-1,2,3,5,6,7,8,10a-octahydropyrrolo[1,2-a]azocin-6-yl)carbamoyl)benzo [b]thiophen-5-yl)methyl) phosphonic acid] | 100 to 1000 | 3 to 30 |
| O=C(N[C@H]1CCCC[C@H]2CC[C@@H](C(=O)NC(CO)c3c[nH]c4ncccc34)N2C1=O)c1cc2cc(C(F)(F)P(=O)(O)O)ccc2s1 (stereo partly drawn) [Compound 645, (difluoro(2-(((3S,6S,10aS)-3-((2-hydroxy-1-(1H-pyrrolo[2,3-b]pyridin-3-yl)ethyl)carbamoyl)-5-oxodecahydropyrrolo [1,2-a]azocin-6-yl)carbamoyl)benzo [b]thiophen-5-yl)methyl) phosphonic acid] | 100 to 1000 | 3 to 30 |
| Cc1cc(=O)[nH]cc1C1CN(C(=O)[C@@H]2CC[C@@H]3CCC[C@H](NC(=O)c4cc5cc(CP(=O)(O)O)ccc5s4)C(=O)N32)C1 [Compound 646, ((2-(((3S,6S,9aS)-3-(3-(4-methyl-6-oxo-1,6-dihydropyridin-3-yl)azetidine-1-carbonyl)-5-oxooctahydro-1H-pyrrolo[1,2-a]azepin-6-yl)carbamoyl)benzo [b]thiophen-5-yl)methyl) phosphonic acid] | 1000 to 10000 | 3 to 30 |
| Cc1ccncc1C1CN(C(=O)[C@@H]2CC[C@@H]3CCCC[C@H](NC(=O)c4cc5cc(CP(=O)(O)O)ccc5s4)C(=O)N32)C1 [Compound 647, ((2-(((3S,6S,10aS)-3-(3-(4-methylpyridin-3-yl)azetidine-1-carbonyl)-5-oxodecahydropyrrolo [1,2-a]azocin-6-yl)carbamoyl)benzo [b]thiophen-5-yl)methyl) phosphonic acid] | 100 to 1000 | 3 to 30 |
| Cc1nccnc1C1CN(C(=O)[C@@H]2CC[C@@H]3CCC[C@H](NC(=O)c4cc5cc(C(F)(F)P(=O)(O)O)ccc5s4)C(=O)N32)C1 [Compound 648, (difluoro(2-(((3S,6S,9aS)-3-(3-(3-methylpyrazin-2-yl)azetidine-1-carbonyl)-5-oxooctahydro-1H-pyrrolo[1,2-a]azepin-6-yl)carbamoyl)benzo [b]thiophen-5-yl)methyl) phosphonic acid] | < 100 | 3 to 30 |
| Cc1nccnc1C1CN(C(=O)[C@@H]2CC[C@@H]3CCC[C@H](NC(=O)c4cc5cc(CP(=O)(O)O)ccc5s4)C(=O)N32)C1 [Compound 649, ((2-(((3S,6S,9aS)-3-(3-(3-methylpyrazin-2-yl)azetidine-1-carbonyl)-5-oxooctahydro-1H-pyrrolo[1,2-a]azepin-6-yl)carbamoyl)benzo [b]thiophen-5-yl)methyl) phosphonic acid] | 1000 to 10000 | 3 to 30 |
| Cc1cncnc1C1CN(C(=O)[C@@H]2CC[C@@H]3CCC[C@H](NC(=O)c4cc5cc(CP(=O)(O)O)ccc5s4)C(=O)N32)C1 [Compound 650, ((2-(((3S,6S,9aS)-3-(3-(5-methylpyrimidin-4-yl)azetidine-1-carbonyl)-5-oxooctahydro-1H-pyrrolo[1,2-a]azepin-6-yl)carbamoyl)benzo [b]thiophen-5-yl)methyl) phosphonic acid] | 1000 to 10000 | 3 to 30 |
| COC1(c2cccnc2)CN(C(=O)[C@@H]2CC[C@@H]3CCCC[C@H](NC(=O)c4cc5cc(CP(=O)(O)O)ccc5s4)C(=O)N32)C1 [Compound 651, ((2-(((3S,6S,10aS)-3-(3-methoxy-3-(pyridin-3-yl)azetidine-1-carbonyl)-5-oxodecahydropyrrolo [1,2-a]azocin-6-yl)carbamoyl)benzo [b]thiophen-5-yl)methyl) phosphonic acid] | 1000 to 10000 | 3 to 30 |
| Cc1cncnc1C1CN(C(=O)[C@@H]2CC[C@@H]3CCC[C@H](NC(=O)c4cc5cc(C(F)(F)P(=O)(O)O)ccc5s4)C(=O)N32)C1 [Compound 652, (difluoro(2-(((3S,6S,9aS)-3-(3-(5-methylpyrimidin-4-yl)azetidine-1-carbonyl)-5-oxooctahydro-1H-pyrrolo[1,2-a]azepin-6-yl)carbamoyl)benzo [b]thiophen-5-yl)methyl) phosphonic acid] | 100 to 1000 | 0.3 to 3 |
| N#Cc1cccc(C2CN(C(=O)[C@@H]3CC[C@@H]4CCC[C@H](NC(=O)c5cc6cc(CP(=O)(O)O)ccc6s5)C(=O)N43)C2)n1 [Compound 653, ((2-(((3S,6S,9aS)-3-(3-(6-cyanopyridin-2-yl)azetidine-1-carbonyl)-5-oxooctahydro-1H-pyrrolo[1,2-a]azepin-6-yl)carbamoyl)benzo [b]thiophen-5-yl)methyl) phosphonic acid] | 100 to 1000 | 3 to 30 |
| COCC1(c2ncccn2)CN(C(=O)[C@@H]2CC[C@@H]3CCCC[C@H](NC(=O)c4cc5cc(C(F)(F)P(=O)(O)O)ccc5s4)C(=O)N32)C1 [Compound 654, (difluoro(2-(((3S,6S,10aS)-3-(3-(methoxymethyl)-3-(pyrimidin-2-yl)azetidine-1-carbonyl)-5-oxodecahydropyrrolo [1,2-a]azocin-6-yl)carbamoyl)benzo [b]thiophen-5-yl)methyl) phosphonic acid] | 100 to 1000 | 3 to 30 |
| Cc1ccncc1C1CN(C(=O)[C@@H]2CC[C@@H]3C[C@@H](C)CC[C@H](NC(=O)c4cc5cc(CP(=O)(O)O)ccc5s4)C(=O)N32)C1 [Compound 655, ((2-(((3S,6S,9S,10aR)-9-methyl-3-(3-(4-methylpyridin-3-yl)azetidine-1-carbonyl)-5-oxodecahydropyrrolo [1,2-a]azocin-6-yl)carbamoyl)benzo [b]thiophen-5-yl)methyl) phosphonic acid] | 100 to 1000 | 3 to 30 |
| Cc1ccncc1C1CN(C(=O)[C@@H]2CC[C@@H]3C[C@H](C)CC[C@H](NC(=O)c4cc5cc(CP(=O)(O)O)ccc5s4)C(=O)N32)C1 [Compound 656, ((2-(((3S,6S,9R,10aR)-9-methyl-3-(3-(4-methylpyridin-3-yl)azetidine-1-carbonyl)-5-oxodecahydropyrrolo [1,2-a]azocin-6-yl)carbamoyl)benzo [b]thiophen-5-yl)methyl) phosphonic acid] | 100 to 1000 | 3 to 30 |
| Cc1cccnc1C1CN(C(=O)[C@@H]2CC[C@@H]3CCC[C@H](NC(=O)c4cc5cc(CP(=O)(O)O)ccc5s4)C(=O)N32)C1 [Compound 657, ((2-(((3S,6S,9aS)-3-(3-(3-methylpyridin-2-yl)azetidine-1-carbonyl)-5-oxooctahydro-1H-pyrrolo[1,2-a]azepin-6-yl)carbamoyl)benzo [b]thiophen-5-yl)methyl) phosphonic acid] | 1000 to 10000 | 3 to 30 |
| Cc1cccnc1C1CN(C(=O)[C@@H]2CC[C@@H]3CCC[C@H](NC(=O)c4cc5cc(C(F)(F)P(=O)(O)O)ccc5s4)C(=O)N32)C1 [Compound 658, (difluoro(2-(((3S,6S,9aS)-3-(3-(3-methylpyridin-2-yl)azetidine-1-carbonyl)-5-oxooctahydro-1H-pyrrolo[1,2-a]azepin-6-yl)carbamoyl)benzo [b]thiophen-5-yl)methyl) phosphonic acid] | 100 to 1000 | 0.3 to 3 |
| N#Cc1cncc(C2CN(C(=O)[C@@H]3CC[C@@H]4CCC[C@H](NC(=O)c5cc6cc(CP(=O)(O)O)ccc6s5)C(=O)N43)C2)c1 [Compound 659, ((2-(((3S,6S,9aS)-3-(3-(5-cyanopyridin-3-yl)azetidine-1-carbonyl)-5-oxooctahydro-1H-pyrrolo[1,2-a]azepin-6-yl)carbamoyl)benzo [b]thiophen-5-yl)methyl) phosphonic acid] | 1000 to 10000 | 3 to 30 |
| N#Cc1ccnc(C2CN(C(=O)[C@@H]3CC[C@@H]4CCC[C@H](NC(=O)c5cc6cc(CP(=O)(O)O)ccc6s5)C(=O)N43)C2)n1 [Compound 660, ((2-(((3S,6S,9aS)-3-(3-(4-cyanopyrimidin-2-yl)azetidine-1-carbonyl)-5-oxooctahydro-1H-pyrrolo[1,2-a]azepin-6-yl)carbamoyl)benzo [b]thiophen-5-yl)methyl) phosphonic acid] | 1000 to 10000 | 3 to 30 |
| Cc1ncncc1C1CN(C(=O)[C@@H]2CC[C@@H]3CCC[C@H](NC(=O)c4cc5cc(CP(=O)(O)O)ccc5s4)C(=O)N32)C1 [Compound 661, ((2-(((3S,6S,9aS)-3-(3-(4-methylpyrimidin-5-yl)azetidine-1-carbonyl)-5-oxooctahydro-1H-pyrrolo[1,2-a]azepin-6-yl)carbamoyl)benzo [b]thiophen-5-yl)methyl) phosphonic acid] | 1000 to 10000 | 3 to 30 |
